Measured values as given in patent US7094868B2, “Peptides for recognition and targeting of GLIAL cell tumors” (Auburn University, priority 2002, dated 2006).

Key:
CTX TNA2 astrocytes = experiment: Evaluation of binding selectivity: phage output/input titer on normal astrocytes; type: cell-based, rat; conditions: for binding selectivity, RG2 glioma versus normal astrocytes: cell-attached phage recovered by elution, FIGS. 7, 10
Experimental: (§1) All analyses were performed in triplicate.

F98 glioma cells = experiment: Evaluation of binding selectivity: phage output/input titer on F98 glioma; type: cell-based, rat; conditions: eluted phage
Experimental: as §1

RG2 glioma cells [1] = experiment: Evaluation of binding selectivity: phage output/input titer, RG2 glioma versus control cell lines overall; type: cell-based, rat
Experimental: as §1

[2] = system: human glioma cell lines SW1088, M059K, A172, and HS 683; experiment: Phage clone binding to human glioma cell lines; type: cell-based; conditions: A172, HS 683
Experimental: The ELRGDSLP phage clone was tested further for binding to four different human glioma cell lines: SW1088, M059K, A172, and HS 683, all obtained from the ATCC.

αv, β3, and β1 integrins = experiment: Affinity precipitation of RG2 cell membrane proteins with cross-linked phage, Western blot with anti-integrin antibodies; type: binding, rat
Experimental: Experiments were performed to isolate and purify the RG2-cell-specific protein that was responsible for binding of the ELRGDSLP phage clone to glioma cells. The basic approach was to perform precipitation of RG2 cell membrane proteins by using the phage clone to form an affinity matrix.
To prepare the RG2 cell membrane proteins, RG2 glioma cells were grown in 25 cm^2 tissue culture flasks. The growing medium was removed from the flasks and cells were collected in PBS buffer containing protease inhibitors. Cells were then pelleted by centrifugation and lysed with octylglucoside buffer (10 mM Tris-HCl, pH 7.5, 140 mM NaCl, 10 mM octylglucoside (Sigma), and protease inhibitor cocktail (Sigma); 5 ml per flask). The cell lysate was clarified by centrifugation and the supernatant containing cell membrane proteins was then used for isolation of glioma-specific receptor proteins.
Cross-linked phage were prepared by the method of Smith et al. (1998) (J. Immunol. Methods 215: 151–161) using a water-soluble, multifunctional dextran polymer. After that, ELRGDSLP cross-linked phage were incubated with the clarified lysate of RG2 cells. Following incubation, the crosslinked phage-receptor protein complexes were pelleted by centrifugation at 10,000 rpm for 15 minutes. Phage particles that were not cross-linked remained in the buffer and were discarded. […]

RG2 glioma cells [3] = experiment: Quantitation of binding specificity: phage output/input titer on RG2 glioma cells; type: cell-based, rat; conditions: cell-surface-bound phage eluted with low pH buffer; 10^9 cfu/flask, 1 hour, room temperature; FIG. 3
Experimental: as §1

[4] = system: BRL 3A hepatocytes, H9c2(2-1) cardiac myoblasts, 27FR fibroblasts; conditions: cell-attached phage recovered by elution; FIGS. 4, 7, 10
Experimental: In order to evaluate the binding specificity conferred by the peptides, various phage clones were incubated with RG2 glioma cells. Two control phage were compared to the RG2 affinity-selected candidate phage clones (see FIG. 3). […] For the quantitation assay, RG2 cells were grown in 25 cm^2 flasks for approximately 48 hours to sub-confluence. One hour prior to application of phage, the normal media was replaced with serum-free media and incubation was continued. Each phage clone (10^9 cfu/flask) was added to a flask of cells in 2 ml of washing/blocking buffer and incubated for 1 hour at room temperature. Following incubation, unbound phage were removed by washing the cells remaining in the flasks 8 times with 4 ml of cold washing/blocking buffer for 5 minutes per wash. Cell surface-bound phage were recovered by incubation with 1 ml of elution buffer for 10 minutes on ice. The eluate was removed from flasks and neutralized with 1 M Tris. Cells were washed again two times with washing/blocking buffer and lysed by incubation with 1 ml lysis buffer for 30 min at room temperature; the lysate was processed as above. Phage titers were determined by infection of bacteria and are presented in FIG. 3 as a ratio of output to input phage. All analyses were performed in triplicate. […]

DLTKSTAP [phage clone displaying the synthetic peptide on major coat protein pVIII]
binding selectivity, RG2 glioma versus normal astrocytes (CTX TNA2 astrocytes): approximately 14 fold

DSTKSGNM [phage clone displaying the synthetic peptide on major coat protein pVIII]
binding to F98 glioma compared to RG2 glioma (in words) (F98 glioma cells; FIG. 7): even better binding | binding selectivity, RG2 glioma versus normal astrocytes (CTX TNA2 astrocytes): 25 fold

DYDMTKNT [phage clone displaying the synthetic peptide on major coat protein pVIII]
binding selectivity for glioma cells compared to control cells (in words) (RG2 glioma cells [1]; RG2 and F98 glioma, astrocytes, myoblasts, hepatocytes, fibroblasts): very selective binding

ELRGDSLP [phage clone displaying the synthetic peptide on major coat protein pVIII]
output/input phage ratio compared between ELRGDSLP and ESRGDSYA phage clones (RG2 glioma cells [1]; lysis, FIGS. 5 and 11): significantly lower | binding to human glioma cell lines (in words) [2]: pronounced glioma-specific binding properties | signal with anti-integrin antibodies in phage-purified protein eluate (αv, β3, and β1 integrins): did not produce any positive signal

VDLPQHGQ [phage clone displaying the synthetic peptide on major coat protein pVIII]
ratio of output to input phage (apparent binding affinity) on RG2 glioma cells (RG2 glioma cells [3]): highest

VGLPEHTQ
ratio of output to input phage (apparent binding affinity) on RG2 glioma cells (RG2 glioma cells [3]): highest | binding to F98 glioma as % of RG2-binding level (F98 glioma cells; FIG. 4): 41% | binding to normal astrocytes as % of RG2-binding level (CTX TNA2 astrocytes; eluted phage, FIG. 4): 64% | binding selectivity, RG2 glioma versus hepatocytes, myoblasts and fibroblasts [4]: approximately 5 fold
